Assays:
[1] = Total Plasma Volume = 2.28 Liters; refer to 2000 Report by Dr. Lobe; cited from earlier work
[2] = Plasma concentration in vivo after transfusion of one unit of 2,3-DPG enhanced cells; conditions: Total Plasma Volume = 2.28 Liters
Experimental: A Y-type tube set is assembled is assembled as shown in FIG. 2 and connected to a unit of RBCs. The tube set includes a 0.2 μm filter. RBC enhancement composition (Rejuvesol® Solution) is transferred to the RBCs via a vented spike to form a treated blood composition. The treated blood composition is mixed and incubated, forming an incubated blood composition. The treated blood composition is centrifuged to form a concentration of RBC and a supernatant. The supernatant is transferred to an empty waste bag, and the concentration of RBCs was resuspended in 100 mL additive solution that was transferred from a second transfer bag.
A Y-type tube set is assembled as shown in FIG. 2 and connected to a unit of 250 mL RBCs. 100 mL additive solution, comprising saline, was transferred to the RBCs. The tube set includes a 0.2 μm filter. 50 mL RBC enhancement composition (Rejuvesol® Solution) was transferred to the RBCs via a vented spike to form a treated blood composition. The treated blood composition was mixed and incubated, forming an incubated blood composition. The incubated blood composition was then diluted with 200 mL wash solution from a first transfer bag containing 200 mL wash solution, forming a diluted blood composition. The diluted blood composition was centrifuged to form a concentration of RBCs and a supernatant. The supernatant was transferred to the now empty first transfer bag, and the concentration of RBCs was resuspended in 100 mL additive solution, which was transferred from a second transfer bag.
Blood processed according to Examples 1 and 2 are analyzed for concentrations of rejuvenation materials in the final processed RBC suspensions, with the following results.

Row | Structure (SMILES) | Plasma Concentration in vivo after transfusion of one unit, Without Further Processing [1] [µM] | Plasma Concentration in vivo after transfusion of one unit, Concept 2, assume 85% Removal [2] [µM] | Plasma Concentration in vivo after transfusion of one unit, Concept 1, assumes 75% Removal [2] [µM]
1 | Nc1ncnc2nc[nH]c12 [Adenine] | 110 | 16 | 27
2 | O=c1[nH]cnc2nc[nH]c12 [Hypoxanthine] | 2190 | 330 | 550
3 | OC[C@H]1O[C@@H](n2cnc3c(O)ncnc32)[C@H](O)[C@@H]1O [Inosine] | 2190 | 330 | 550
4 | CC(O)C(=O)O (stereo not drawn) [Lactate] | 2190 | 330 | 550
5 | CC(=O)C(=O)O [Pyruvate] | 2190 | 330 | 550
6 | O=c1[nH]c(=O)c2[nH]c(=O)[nH]c2[nH]1 [Uric Acid] | 2190 | 330 | 550

— US20150366911A1, “METHODS FOR REJUVENATING RED BLOOD CELLS” (Biomet Biologics, LLC, priority 2013, published 2015)
